This is an account of results in patent publication US9862749B2, “Analogue peptide CMA3 derived from CM-MA peptide and use thereof” (Industry-Academic Cooperation Foundation, Chosun University, priority 2014, dated 2018).

What all share (type): cell-based
A short description of one data set: in vitro. The following applies: human, HaCaT cells (human keratinocyte cell line). As to the method:
To investigate the cytotoxicity of each peptide prepared by the method of Example 1 to human keratinocyte cell line (HaCaT cell line, Dr. N E. Fusenig, Heidelberg, Germany) was measured.
Particularly, the HaCaT cell line cultured in DMEM supplemented with 10% FBS (Fetal Bovine Serum) was distributed in a 96-well plate at the density of 3×10^3 cells/well, followed by culture for 24 hours. The CM-MA, CMA1, CMA2, CMA3, CMA4, CMA5, or CMA6 peptide prepared in Example 1 was treated to each well at the concentration of 12.5, 25.0, 50.0, 100.0, or 200.0 μM/well, followed by reaction in a 5% CO2 incubator for 24 hours. Upon completion of the culture, 20 ul of the reaction solution containing 5 mg/ml MTT (Thiazolyl Blue Tetrazolium Bromide) dissolved in PBS (phosphate buffered saline) was added to each well, followed by reaction for 4 hours. Then, the supernatant was eliminated.

The subject of a further data set is Listeria monocytogenes. To be noted: 12 h. As for the experimental part:
(§1) To compare the antibacterial activities among those peptides prepared by the method of Example 1 of the invention, the inventors measured MIC (minimal inhibitory concentration) of the peptide which is the minimum concentration for staying without being broken.
(§2) Particularly, the strains listed in Table 2 were purchased and cultured in each medium composed as instructed until the mid-log phase. The cells were diluted at the density of 5×10^5 cells/100 μl, which were then inoculated in a micro-titrate plate (Nunc, USA). Then, the CMA1, CMA2, CMA3, CMA4, CMA5, or CMA6 peptide synthesized in Example 1 was ½ fold diluted in each 96 well plate, and then added to the plate, followed by culture at 37° C. for 12 hours. OD620 was measured with a micro-titrate plate reader (Merck Elisa reader, Germany) to determine MIC for each strain. As for the control, the mother peptide CM-MA was treated by the same manner as described above and MIC was also determined.

A further data set has as its system Salmonella typhimurium. The following applies: 12 h. As for the experimental part: as §1, §2
Another data set relates to Staphylococcus aureus. The following applies: 12 h. As for the experimental part: as §1, §2
In another data set the test system is Escherichia coli. To be noted: 12 h. As to the method:
as §1, §2

The test system of a further data set is Pseudomonas aeruginosa. The following applies: 12 h. As to the method: as §1, §2
Data set [1] relates to Staphylococcus epidermidis. To be noted: 12 h. As to the method:
as §1, §2

SMILES strings stand for the structures. In brackets after ≈: the same amount, converted by molar mass. Peptide text beside a SMILES is read from it.

In turn, `CC[C@H](C)[C@H](NC(=O)CNC(=O)[C@@H](NC(=O)[C@H](CCCCN)NC(=O)[C@H](CCCCN)NC(=O)[C@H](Cc1ccccc1)NC(=O)[C@H](CC(C)C)NC(=O)[C@H](CCCCN)NC(=O)[C@H](Cc1c[nH]c2ccccc12)NC(=O)[C@@H](N)CCCCN)[C@@H](C)CC)C(=O)NCC(=O)N[C@@H](CCCCN)C(=O)N[C@@H](Cc1ccccc1)C(=O)N[C@@H](CC(C)C)C(=O)N[C@@H](Cc1c[nH]cn1)C(=O)N[C@@H](CO)C(=O)N[C@@H](C)C(=O)N[C@@H](CCCCN)C(=O)N[C@@H](CCCCN)C(=O)N[C@@H](Cc1ccccc1)C(N)=O` [CA-MA, reference compound] (H-KWKLFKKIGIGKFLHSAKKF-NH2) came in with a viability at 24 h, 200 µM in “in vitro” of 1.4%. In addition, the Minimal inhibitory concentration with Listeria monocytogenes turned out to be 0.5 µM (≈ 1.2 µg/mL); in the data set with Salmonella typhimurium, 1 µM (≈ 2.4 µg/mL); in the data set with Staphylococcus aureus, 8 µM (≈ 19.2 µg/mL); in the data set on Escherichia coli, 2 µM (≈ 4.81 µg/mL); in the data set with Pseudomonas aeruginosa, 1 µM (≈ 2.4 µg/mL); in data set [1], 8 µM (≈ 19.2 µg/mL).

In the data set “in vitro”, `CC[C@H](C)[C@H](NC(=O)CNC(=O)[C@@H](NC(=O)[C@H](CCCCN)NC(=O)[C@H](CCCCN)NC(=O)[C@H](Cc1ccccc1)NC(=O)[C@H](CC(C)C)NC(=O)[C@H](CCCCN)NC(=O)[C@H](Cc1c[nH]c2ccccc12)NC(=O)[C@@H](N)CCCCN)[C@@H](C)CC)C(=O)NCC(=O)N[C@@H](CCCCN)C(=O)N[C@@H](Cc1c[nH]cn1)C(=O)N[C@@H](Cc1ccccc1)C(=O)N[C@@H](CC(C)C)C(=O)N[C@@H](CO)C(=O)N[C@@H](C)C(=O)N[C@@H](CCCCN)C(=O)N[C@@H](CCCCN)C(=O)N[C@@H](Cc1ccccc1)C(N)=O` [CMA1] (H-KWKLFKKIGIGKHFLSAKKF-NH2) returned a viability at 24 h, 200 µM of 51.1%. For the same molecule, the Minimal inhibitory concentration with Listeria monocytogenes worked out at 4 µM (≈ 9.62 µg/mL); in the data set on Salmonella typhimurium, 1 µM (≈ 2.4 µg/mL); in the data set with Staphylococcus aureus, 16 µM (≈ 38.5 µg/mL); with Escherichia coli, 8 µM (≈ 19.2 µg/mL); in the data set with Pseudomonas aeruginosa, 8 µM (≈ 19.2 µg/mL); in data set [1], 32 µM (≈ 76.9 µg/mL).

Take `CC[C@H](C)[C@H](NC(=O)CNC(=O)[C@@H](NC(=O)[C@H](CCCCN)NC(=O)[C@H](CCCCN)NC(=O)[C@H](Cc1ccccc1)NC(=O)[C@H](CC(C)C)NC(=O)[C@H](CCCCN)NC(=O)[C@H](Cc1c[nH]c2ccccc12)NC(=O)[C@@H](N)CCCCN)[C@@H](C)CC)C(=O)NCC(=O)N[C@@H](CCCCN)C(=O)N[C@@H](Cc1ccccc1)C(=O)N[C@@H](CC(C)C)C(=O)N[C@@H](CO)C(=O)N[C@@H](C)C(=O)N[C@@H](Cc1c[nH]cn1)C(=O)N[C@@H](CCCCN)C(=O)N[C@@H](CCCCN)C(=O)N[C@@H](Cc1ccccc1)C(N)=O` [CMA2] (H-KWKLFKKIGIGKFLSAHKKF-NH2): the Minimal inhibitory concentration in the data set on Listeria monocytogenes is 1 µM (≈ 2.4 µg/mL); in the data set with Salmonella typhimurium, 1 µM (≈ 2.4 µg/mL); with Staphylococcus aureus, 32 µM (≈ 76.9 µg/mL); in the data set with Escherichia coli, 2 µM (≈ 4.81 µg/mL); with Pseudomonas aeruginosa it was 4 µM (≈ 9.62 µg/mL); in data set [1], 16 µM (≈ 38.5 µg/mL).

Turning to `CC[C@H](C)[C@H](NC(=O)CNC(=O)[C@@H](NC(=O)[C@H](Cc1c[nH]cn1)NC(=O)[C@H](CCCCN)NC(=O)[C@H](CCCCN)NC(=O)[C@H](CC(C)C)NC(=O)[C@H](CCCCN)NC(=O)[C@H](Cc1c[nH]c2ccccc12)NC(=O)[C@@H](N)CCCCN)[C@@H](C)CC)C(=O)NCC(=O)N[C@@H](CCCCN)C(=O)N[C@@H](Cc1c[nH]cn1)C(=O)N[C@@H](Cc1ccccc1)C(=O)N[C@@H](CC(C)C)C(=O)N[C@@H](CO)C(=O)N[C@@H](C)C(=O)N[C@@H](CCCCN)C(=O)N[C@@H](CCCCN)C(=O)N[C@@H](Cc1ccccc1)C(N)=O` [CMA3] (H-KWKLKKHIGIGKHFLSAKKF-NH2; N-terminus assumed), the viability at 24 h, 200 µM in “in vitro” was 92.4%. The Minimal inhibitory concentration was found to be 2 µM (≈ 4.79 µg/mL) with Listeria monocytogenes; 1 µM (≈ 2.39 µg/mL) in the data set with Salmonella typhimurium; 32 µM (≈ 76.6 µg/mL) in the data set on Staphylococcus aureus; 4 µM (≈ 9.58 µg/mL) in the data set on Escherichia coli; 8 µM (≈ 19.2 µg/mL) in the data set on Pseudomonas aeruginosa; 64 µM (≈ 153 µg/mL) in data set [1].

In the case of `CC[C@H](C)[C@H](NC(=O)CNC(=O)[C@@H](NC(=O)[C@H](CCCCN)NC(=O)[C@H](CCCCN)NC(=O)[C@H](CC(C)C)NC(=O)[C@H](Cc1c[nH]cn1)NC(=O)[C@H](CCCCN)NC(=O)[C@H](Cc1c[nH]c2ccccc12)NC(=O)[C@@H](N)CCCCN)[C@@H](C)CC)C(=O)NCC(=O)N[C@@H](CCCCN)C(=O)N[C@@H](Cc1ccccc1)C(=O)N[C@@H](CC(C)C)C(=O)N[C@@H](CO)C(=O)N[C@@H](C)C(=O)N[C@@H](Cc1c[nH]cn1)C(=O)N[C@@H](CCCCN)C(=O)N[C@@H](CCCCN)C(=O)N[C@@H](Cc1ccccc1)C(N)=O` [CMA4] (H-KWKHLKKIGIGKFLSAHKKF-NH2), the viability at 24 h, 200 µM in the data set “in vitro” was determined as 64.5%. Also, the Minimal inhibitory concentration was determined as 2 µM (≈ 4.79 µg/mL) with Listeria monocytogenes; 1 µM (≈ 2.39 µg/mL) in the data set with Salmonella typhimurium; 32 µM (≈ 76.6 µg/mL) with Staphylococcus aureus; 4 µM (≈ 9.58 µg/mL) in the data set on Escherichia coli; 16 µM (≈ 38.3 µg/mL) in the data set on Pseudomonas aeruginosa; 32 µM (≈ 76.6 µg/mL) in data set [1].

On to `CC[C@H](C)[C@H](NC(=O)CNC(=O)[C@@H](NC(=O)[C@H](CCCCN)NC(=O)[C@H](CCCCN)NC(=O)[C@H](CC(C)C)NC(=O)[C@H](Cc1c[nH]cn1)NC(=O)[C@H](CCCCN)NC(=O)[C@H](Cc1c[nH]c2ccccc12)NC(=O)[C@@H](N)CCCCN)[C@@H](C)CC)C(=O)NCC(=O)N[C@@H](CCCCN)C(=O)N[C@@H](Cc1c[nH]cn1)C(=O)N[C@@H](Cc1ccccc1)C(=O)N[C@@H](CC(C)C)C(=O)N[C@@H](CO)C(=O)N[C@@H](C)C(=O)N[C@@H](CCCCN)C(=O)N[C@@H](CCCCN)C(=O)N[C@@H](Cc1ccccc1)C(N)=O` [CMA5] (H-KWKHLKKIGIGKHFLSAKKF-NH2), for which the viability at 24 h, 200 µM in the data set “in vitro” is 78.9%. Also, the Minimal inhibitory concentration is 2 µM (≈ 4.79 µg/mL) in the data set with Listeria monocytogenes; 1 µM (≈ 2.39 µg/mL) in the data set on Salmonella typhimurium; 32 µM (≈ 76.6 µg/mL) with Staphylococcus aureus; 8 µM (≈ 19.2 µg/mL) with Escherichia coli; 16 µM (≈ 38.3 µg/mL) in the data set on Pseudomonas aeruginosa; 64 µM (≈ 153 µg/mL) in data set [1].

Turning to `CC[C@H](C)[C@H](NC(=O)CNC(=O)[C@@H](NC(=O)[C@H](CCCCN)NC(=O)[C@H](CCCCN)NC(=O)[C@H](Cc1ccccc1)NC(=O)[C@H](CC(C)C)NC(=O)[C@H](CCCCN)NC(=O)[C@H](Cc1c[nH]c2ccccc12)NC(=O)[C@@H](N)CCCCN)[C@@H](C)CC)C(=O)NCC(=O)N[C@@H](CCCCN)C(=O)N[C@@H](Cc1ccccc1)C(=O)N[C@@H](CC(C)C)C(=O)N[C@@H](CCC(N)=O)C(=O)N[C@@H](CO)C(=O)N[C@@H](C)C(=O)N[C@@H](CCCCN)C(=O)N[C@@H](CCCCN)C(=O)N[C@@H](Cc1ccccc1)C(N)=O` [CMA6] (H-KWKLFKKIGIGKFLQSAKKF-NH2; N-terminus assumed), the Minimal inhibitory concentration stood at 1 µM (≈ 2.4 µg/mL) in the data set with Listeria monocytogenes; 1 µM (≈ 2.4 µg/mL) in the data set on Salmonella typhimurium; 16 µM (≈ 38.3 µg/mL) with Staphylococcus aureus; 4 µM (≈ 9.58 µg/mL) in the data set on Escherichia coli; 4 µM (≈ 9.58 µg/mL) in the data set on Pseudomonas aeruginosa; 8 µM (≈ 19.2 µg/mL) in data set [1].

Broadly, the viability is a per cent measure of how many cells are alive, often set against a control. The low end stands for more harm to the cells, the high end for less harm to the cells.
